Tests used:
rat [1] = settings: Sub-acute repeat dose toxicity, fischer, Oral, Gavage/Intubation, dose end: 14 day, group: systemic
rat [2] = settings: Subchronic oral toxicity in rodents, fischer, Gavage/Intubation, dose end: 13 week, group: systemic, systemic / pathology gross / spleen / enlarged + systemic / pathology microscopic / kidney / hemosiderosis + systemic / pathology …
mouse [3] = settings: Sub-acute repeat dose toxicity, b6c3f1, Oral, Gavage/Intubation, dose end: 15 day, group: systemic
mouse [4] = settings: Subchronic oral toxicity in rodents, b6c3f1, Gavage/Intubation, dose end: 13 week, group: systemic
mouse [5] = settings: Carcinogenicity, b6c3f1, Oral, Gavage/Intubation, dose end: 103 week, group: systemic
rat [6] = settings: Carcinogenicity, fischer, Oral, Gavage/Intubation, dose end: 103 week, group: systemic
mouse [7] = settings: Subchronic oral toxicity in rodents, b6c3f1, Feed, dose end: 13 week, group: systemic
rat [8] = settings: Subchronic oral toxicity in rodents, fischer, Feed, dose end: 13 week, group: systemic
mouse [9] = settings: Sub-acute repeat dose toxicity; b6c3f1; Oral; Feed; dose end: 14 day; group: systemic; systemic / in life observation / clinical signs / feces, discoloration
rat [10] = settings: Carcinogenicity; fischer; Oral; Feed; dose end: 105 week; group: systemic; systemic / in life observation / body weight / body weight + systemic / pathology microscopic / kidney / nephropathy + systemic / pathology …
rat [11] = settings: Subchronic oral toxicity in rodents, fischer, Feed, dose end: 13 week, group: systemic; remark: listed apart in the source
rat [12] = settings: Sub-acute repeat dose toxicity; fischer; Oral; Feed; dose end: 14 day; group: systemic; systemic / in life observation / clinical signs / feces, discoloration + systemic / in life observation / food consumption / food …
mouse [13] = settings: Carcinogenicity, b6c3f1, Oral, Feed, dose end: 105 week, group: systemic
mouse [14] = settings: Subchronic oral toxicity in rodents, b6c3f1, Feed, dose end: 13 week, group: systemic; remark: listed apart in the source
rat [15] = settings: Combined chronic toxicity/carcinogenicity; fischer; Oral; Feed; dose end: 104 week; group: systemic; systemic / pathology microscopic / adrenal gland / pheochromocytoma benign + systemic / pathology microscopic / adrenal gland / …
mouse [16] = settings: Combined chronic toxicity/carcinogenicity; b6c3f1; Oral; Feed; dose end: 104 week; group: systemic; systemic / pathology microscopic / blood / lymphoma malignant + systemic / pathology microscopic / ovary / interstitial stromal tumor + …
mouse [17] = settings: Carcinogenicity; b6c3f1; Oral; Feed; dose end: 104 week; group: systemic; systemic / in life observation / body weight / body weight
[18] = systemic / pathology gross / spleen / enlarged
[19] = systemic / pathology gross / spleen / enlarged + systemic / pathology microscopic / spleen / hematopoietic cell proliferation + systemic / …
[20] = systemic / pathology gross / spleen / enlarged + systemic / pathology microscopic / spleen / congestion + systemic / pathology microscopic…
[21] = systemic / in life observation / body weight / body weight
[22] = systemic / pathology microscopic / stomach / hyperplasia
[23] = systemic / pathology microscopic / stomach / squamous cell papilloma + systemic / pathology microscopic / stomach / hyperplasia
[24] = systemic / pathology microscopic / liver / inflammation + systemic / pathology microscopic / spleen / hematopoietic cell proliferation + …
[25] = systemic / pathology microscopic / spleen / hematopoietic cell proliferation + systemic / pathology microscopic / spleen / hemosiderosis
[26] = systemic / organ weight / epididymis / absolute + systemic / organ weight / testes / absolute + systemic / organ weight / testes / relative …
[27] = systemic / organ weight / testes / absolute
[28] = systemic / organ weight / liver / absolute + systemic / organ weight / liver / relative to body weight
[29] = systemic / clinical chemistry / bile acids / bile acids + systemic / in life observation / food consumption / food consumption + systemic / …
[30] = systemic / pathology microscopic / spleen / hematopoietic cell proliferation + systemic / pathology microscopic / testes / degeneration
[31] = systemic / pathology microscopic / spleen / hematopoietic cell proliferation + systemic / pathology microscopic / testes / degeneration + …
[32] = systemic / organ weight / epididymis / nos + systemic / organ weight / liver / absolute + systemic / organ weight / testes / absolute + …

Question: `CN(C)c1ccccc1` [N,N-Dimethylaniline] was tested. Which LEL (rat [1]; [18]) did it give?
Answer: Its LEL is 94 mg/kg/day.

Question: And the NEL (rat [1]; [18])?
Answer: Its NEL is less than 94 mg/kg/day.

Question: What about the LOAEL (rat [1]; [19]) of the same compound?
Answer: Its LOAEL is 375 mg/kg/day.

Question: What about the NOAEL (rat [1]; [19]) of the same compound?
Answer: The NOAEL was 188 mg/kg/day.

Question: What about the LEL (rat [2]) of the same compound?
Answer: The LEL was 31 mg/kg/day.

Question: And the LOAEL (rat [2])?
Answer: Its LOAEL is 31 mg/kg/day.

Question: And the NEL (rat [2])?
Answer: The NEL was less than 31 mg/kg/day.

Question: And the NOAEL (rat [2])?
Answer: The NOAEL was less than 31 mg/kg/day.

Question: And the LEL (mouse [3]; [18])?
Answer: Its LEL is 188 mg/kg/day.

Question: And the LOAEL (mouse [3]; [20])?
Answer: Its LOAEL is 375 mg/kg/day.

Question: And the NEL (mouse [3]; [20])?
Answer: The NEL was 94 mg/kg/day.

Question: And the NOAEL (mouse [3]; [20])?
Answer: The NOAEL was 188 mg/kg/day.

Question: And the LEL (mouse [4]; [21])?
Answer: Its LEL is 31 mg/kg/day.

Question: And the NEL (mouse [4]; [21])?
Answer: The NEL was less than 31 mg/kg/day.

Question: And the LOAEL (mouse [4]; [19])?
Answer: The LOAEL was 62 mg/kg/day.

Question: And the NOAEL (mouse [4]; [19])?
Answer: The NOAEL was 31 mg/kg/day.

Question: And the LEL (mouse [5]; [22])?
Answer: Its LEL is 15 mg/kg/day.

Question: What about the NEL (mouse [5]; [22]) of the same compound?
Answer: The NEL was less than 15 mg/kg/day.

Question: And the LOAEL (mouse [5]; [23])?
Answer: Its LOAEL is greater than 30 mg/kg/day.

Question: And the NOAEL (mouse [5]; [23])?
Answer: The NOAEL was no less than 30 mg/kg/day.

Question: And the LOAEL (rat [6]; [24])?
Answer: The LOAEL was 30 mg/kg/day.

Question: What about the NOAEL (rat [6]; [24]) of the same compound?
Answer: Its NOAEL is 3 mg/kg/day.

Question: What about the LEL (rat [6]; [25]) of the same compound?
Answer: The LEL was 3 mg/kg/day.

Question: What about the NEL (rat [6]; [25]) of the same compound?
Answer: Its NEL is less than 3 mg/kg/day.

Question: Which results are given for `O=C1OC(c2ccc(O)cc2)(c2ccc(O)cc2)c2ccccc21` [Phenolphthalein]?
Answer: LOAEL (mouse [7]; [26]): 2000 mg/kg/day; NOAEL (mouse [7]; [26]): 1000 mg/kg/day; LEL (mouse [7]; [27]): 500 mg/kg/day; NEL (mouse [7]; [27]): < 500 mg/kg/day; LOAEL (rat [8]; [28]): > 3500 mg/kg/day; NEL (rat [8]; [28]): 400 mg/kg/day; NOAEL (rat [8]; [28]): ≥ 3500 mg/kg/day; LEL (rat [8]; systemic / organ weight / liver / relative to body weight): 800 mg/kg/day; LEL (mouse [9]): 15000 mg/kg/day; LOAEL (mouse [9]): > 15000 mg/kg/day; NEL (mouse [9]): 7500 mg/kg/day; NOAEL (mouse [9]): ≥ 15000 mg/kg/day; LEL (rat [10]): 500 mg/kg/day; LOAEL (rat [10]): 500 mg/kg/day; NEL (rat [10]): < 500 mg/kg/day; NOAEL (rat [10]): < 500 mg/kg/day; LEL (rat [11]; systemic / clinical chemistry / bile acids / bile acids): 383 mg/kg/day; LOAEL (rat [11]; [29]): > 3490 mg/kg/day; NEL (rat [11]; [29]): 192 mg/kg/day; NOAEL (rat [11]; [29]): ≥ 3490 mg/kg/day; LEL (rat [12]): 10500 mg/kg/day; LOAEL (rat [12]): > 10500 mg/kg/day; NEL (rat [12]): 4500 mg/kg/day; NOAEL (rat [12]): ≥ 10500 mg/kg/day; LOAEL (mouse [13]; [30]): 300 mg/kg/day; NOAEL (mouse [13]; [30]): < 300 mg/kg/day; LEL (mouse [13]; [31]): 300 mg/kg/day; NEL (mouse [13]; [31]): < 300 mg/kg/day; LOAEL (mouse [14]; [32]): > 9140 mg/kg/day; NOAEL (mouse [14]; [32]): ≥ 9140 mg/kg/day; LEL (mouse [14]; [27]): 509 mg/kg/day; NEL (mouse [14]; [27]): < 509 mg/kg/day; LEL (rat [15]): 500 mg/kg/day; LOAEL (rat [15]): > 2000 mg/kg/day; NEL (rat [15]): < 500 mg/kg/day; NOAEL (rat [15]): ≥ 2000 mg/kg/day; LEL (mouse [16]): 300 mg/kg/day; LOAEL (mouse [16]): > 1200 mg/kg/day; NEL (mouse [16]): < 300 mg/kg/day; NOAEL (mouse [16]): ≥ 1200 mg/kg/day

Question: Which LEL (mouse [17]) does the source give for `O=C1OC(=O)c2ccccc21` [Phthalic anhydride] here?
Answer: The LEL was 1800 mg/kg/day.

Question: And the LOAEL (mouse [17])?
Answer: The LOAEL was 1800 mg/kg/day.

Question: What about the NEL (mouse [17]) of the same compound?
Answer: The NEL was less than 1800 mg/kg/day.

Question: And the NOAEL (mouse [17])?
Answer: Its NOAEL is less than 1800 mg/kg/day.
